In ChEMBL document CHEMBL1759930, “Structural requirements of (E)-6-benzylidene-4a-methyl-4,4a,5,6,7,8-hexahydronaphthalen-2(3H)-one derivatives as novel melanogenesis inhibitors” (Bioorg Med Chem Lett, 2011):

system: B16; experiment: Inhibition of alpha-MSH -stimulated melanogenesis in mouse B16 cells assessed as melanin release after 3 days; type: functional, cell-based; conditions: B16, 72 h

IC50 | Structure (SMILES)
> 30 µM | COc1ccc(/C=C2\CCC3=CC4(CCC3(C)C2=O)SCCS4)cc1OC (stereo not given)
13.5 µM | CC12CCC3(C=C1CC/C(=C\c1ccc(C(C)(C)C)cc1)C2=O)SCCS3 (stereo not given)
> 30 µM | CC12CCC3(C=C1CC/C(=C\c1ccc(Cl)cc1)C2=O)SCCS3 (stereo not given)
> 30 µM | CC12CCC3(C=C1CCCC2=O)SCCS3 (stereo not given)
7.6 µM | CN(C)c1ccc(/C=C2\CCC3=CC4(CCC3(C)C2=O)SCCS4)cc1 (stereo not given)
120 µM | OC[C@H]1O[C@@H](Oc2ccc(O)cc2)[C@H](O)[C@@H](O)[C@@H]1O [ARBUTIN]
10.5 µM | CC12CCC3(C=C1CC/C(=C\c1ccccc1)C2=O)SCCS3 (stereo not given)
> 30 µM | Cc1ccc(/C=C2\CCCC(C)C2=O)cc1 (stereo not given)
6 µM | COc1ccc(/C=C2\CCC3=CC(=O)CCC3(C)C2=O)cc1 (stereo not given)
3.5 µM | COc1ccc(/C=C2\CCC3=CC4(CCC3(C)C2=O)SCCS4)cc1 (stereo not given)
18.5 µM | CCc1ccc(/C=C2\CCC3=CC4(CCC3(C)C2=O)SCCS4)cc1 (stereo not given)
> 30 µM | COc1ccc(/C=C2\CCCC(C)C2=O)cc1 (stereo not given)
> 30 µM | CC1CCC/C(=C\c2ccc(O)cc2)C1=O (stereo not given)
25.5 µM | CC12CCC3(C=C1CC/C(=C\c1ccc(Cl)c(Cl)c1)C2=O)SCCS3 (stereo not given)
16.5 µM | CC12CCC3(C=C1CC/C(=C\C=C\c1ccccc1)C2=O)SCCS3 (stereo not given)
13.5 µM | CC12CCC3(C=C1CC/C(=C\c1ccc(OCc4ccccc4)cc1)C2=O)SCCS3 (stereo not given)
> 30 µM | CC1CCC/C(=C\c2ccccc2)C1=O (stereo not given)
6 µM | COCOc1ccc(/C=C2\CCC3=CC4(CCC3(C)C2=O)SCCS4)cc1 (stereo not given)
23 µM | Cc1ccc(/C=C2\CCC3=CC(=O)CCC3(C)C2=O)cc1 (stereo not given)
11.5 µM | CC12CCC3(C=C1CC/C(=C\c1cccc4ccccc14)C2=O)SCCS3 (stereo not given)
> 30 µM | CC1CCC/C(=C\c2ccc(Cl)cc2)C1=O (stereo not given)
4.3 µM | CC12CCC3(C=C1CC/C(=C\c1ccc(O)cc1)C2=O)SCCS3 (stereo not given)
17.1 µM | Cc1ccc(/C=C2\CCC3=CC4(CCC3(C)C2=O)SCCS4)cc1 (stereo not given)

system: B16; experiment: Inhibition of alpha-MSH -stimulated melanogenesis in mouse B16 cells assessed as melanin release at 10 uM after 3 days; type: functional; conditions: B16, 72 h

Structure (SMILES) | inhibition at 10 µM
COc1ccc(/C=C2\CCC3=CC4(CCC3(C)C2=O)SCCS4)cc1OC (stereo not given) | 43%
CC12CCC3(C=C1CC/C(=C\c1ccc(C(C)(C)C)cc1)C2=O)SCCS3 (stereo not given) | 83%
CC12CCC3(C=C1CC/C(=C\c1ccc(Cl)cc1)C2=O)SCCS3 (stereo not given) | 35%
CC12CCC3(C=C1CCCC2=O)SCCS3 (stereo not given) | < 10%
CN(C)c1ccc(/C=C2\CCC3=CC4(CCC3(C)C2=O)SCCS4)cc1 (stereo not given) | 65%
CC12CCC3(C=C1CC/C(=C\c1ccccc1)C2=O)SCCS3 (stereo not given) | 85%
Cc1ccc(/C=C2\CCCC(C)C2=O)cc1 (stereo not given) | < 10%
COc1ccc(/C=C2\CCC3=CC(=O)CCC3(C)C2=O)cc1 (stereo not given) | 72%
COc1ccc(/C=C2\CCC3=CC4(CCC3(C)C2=O)SCCS4)cc1 (stereo not given) | > 100%
CCc1ccc(/C=C2\CCC3=CC4(CCC3(C)C2=O)SCCS4)cc1 (stereo not given) | 80%
COc1ccc(/C=C2\CCCC(C)C2=O)cc1 (stereo not given) | < 10%
CC1CCC/C(=C\c2ccc(O)cc2)C1=O (stereo not given) | < 10%
CC12CCC3(C=C1CC/C(=C\c1ccc(Cl)c(Cl)c1)C2=O)SCCS3 (stereo not given) | 62%
CC12CCC3(C=C1CC/C(=C\C=C\c1ccccc1)C2=O)SCCS3 (stereo not given) | 75%
CC12CCC3(C=C1CC/C(=C\c1ccc(OCc4ccccc4)cc1)C2=O)SCCS3 (stereo not given) | 80%
CC1CCC/C(=C\c2ccccc2)C1=O (stereo not given) | < 10%
COCOc1ccc(/C=C2\CCC3=CC4(CCC3(C)C2=O)SCCS4)cc1 (stereo not given) | 92%
Cc1ccc(/C=C2\CCC3=CC(=O)CCC3(C)C2=O)cc1 (stereo not given) | 60%
CC12CCC3(C=C1CC/C(=C\c1cccc4ccccc14)C2=O)SCCS3 (stereo not given) | 85%
CC1CCC/C(=C\c2ccc(Cl)cc2)C1=O (stereo not given) | < 10%
CC12CCC3(C=C1CC/C(=C\c1ccc(O)cc1)C2=O)SCCS3 (stereo not given) | 96%
Cc1ccc(/C=C2\CCC3=CC4(CCC3(C)C2=O)SCCS4)cc1 (stereo not given) | > 100%
